Data published in patent US20260078398A1, “PLANTS GENETICALLY ENGINEERED FOR INCREASED WATER USE EFFICIENCY AND CARBON INTAKE AND METHODS FOR MAKING AND USING THEM” (The Regents of the University of California, priority 2022, published 2026).

T1: HT1-G89R (Arabidopsis, UniProt Q2MHE4 1-390)
T1 construct: Recombinant HT1 isoform; No tag is stated for the variant; the wild type in the same pull-down was His-HT1; also called ht1-G89R isoform
T1 sequence: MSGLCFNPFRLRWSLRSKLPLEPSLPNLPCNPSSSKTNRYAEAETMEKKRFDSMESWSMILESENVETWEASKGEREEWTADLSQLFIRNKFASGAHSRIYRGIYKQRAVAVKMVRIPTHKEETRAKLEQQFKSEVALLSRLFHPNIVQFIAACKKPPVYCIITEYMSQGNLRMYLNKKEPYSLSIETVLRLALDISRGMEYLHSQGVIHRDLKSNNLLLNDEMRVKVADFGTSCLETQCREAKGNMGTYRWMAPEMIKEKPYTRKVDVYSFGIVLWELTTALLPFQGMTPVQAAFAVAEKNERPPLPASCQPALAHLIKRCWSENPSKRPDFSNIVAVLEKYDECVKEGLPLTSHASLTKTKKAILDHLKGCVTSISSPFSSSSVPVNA

T2: His-HT1 (recombinant Arabidopsis HT1 protein kinase, wild type, with His tag)
T2 chain: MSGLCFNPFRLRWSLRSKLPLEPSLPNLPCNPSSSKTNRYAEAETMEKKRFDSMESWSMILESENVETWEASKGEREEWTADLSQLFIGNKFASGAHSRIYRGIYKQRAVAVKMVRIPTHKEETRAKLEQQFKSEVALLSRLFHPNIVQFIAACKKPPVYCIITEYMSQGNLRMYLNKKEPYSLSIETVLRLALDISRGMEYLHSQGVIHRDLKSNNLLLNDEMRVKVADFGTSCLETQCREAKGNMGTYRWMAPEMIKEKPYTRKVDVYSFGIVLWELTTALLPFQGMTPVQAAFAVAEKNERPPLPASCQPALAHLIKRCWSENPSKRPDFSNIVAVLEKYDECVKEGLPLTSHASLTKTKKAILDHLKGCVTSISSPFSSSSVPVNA

T3: HT1-A109V (Arabidopsis, UniProt Q2MHE4 1-390)
T3 construct: Recombinant HT1 isoform; No tag is stated for the variant; also called ht1-A109V isoform
T3 sequence: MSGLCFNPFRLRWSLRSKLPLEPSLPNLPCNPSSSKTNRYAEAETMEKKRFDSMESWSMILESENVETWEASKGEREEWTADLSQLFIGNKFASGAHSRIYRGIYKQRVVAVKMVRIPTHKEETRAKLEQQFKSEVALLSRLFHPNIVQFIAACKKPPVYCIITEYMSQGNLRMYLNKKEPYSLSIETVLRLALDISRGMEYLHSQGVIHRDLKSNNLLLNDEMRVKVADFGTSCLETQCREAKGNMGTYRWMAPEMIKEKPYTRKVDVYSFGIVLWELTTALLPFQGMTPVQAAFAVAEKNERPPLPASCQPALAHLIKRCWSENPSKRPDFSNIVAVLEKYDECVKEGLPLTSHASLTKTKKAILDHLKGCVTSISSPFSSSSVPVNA

T4: HT1-R102K (Arabidopsis, UniProt Q2MHE4 1-390)
T4 construct: Recombinant HT1 isoform; No tag is stated for the variant
T4 sequence: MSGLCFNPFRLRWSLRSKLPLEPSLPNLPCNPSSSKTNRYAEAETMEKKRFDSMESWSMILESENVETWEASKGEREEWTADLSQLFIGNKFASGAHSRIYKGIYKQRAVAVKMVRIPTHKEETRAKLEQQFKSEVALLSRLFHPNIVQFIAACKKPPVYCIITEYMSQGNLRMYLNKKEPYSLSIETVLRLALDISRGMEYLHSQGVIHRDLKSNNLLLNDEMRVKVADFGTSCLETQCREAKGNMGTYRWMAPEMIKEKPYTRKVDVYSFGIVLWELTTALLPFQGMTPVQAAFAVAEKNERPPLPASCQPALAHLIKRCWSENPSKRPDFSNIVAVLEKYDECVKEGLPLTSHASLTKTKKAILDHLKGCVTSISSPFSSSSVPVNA


Key:
S-type anion channels = conditions: proposed secondary HCO3- response mechanism (ref. 10); cited from earlier work
MPK4 and HT1 = target: T5, MPK4 and HT1 (Arabidopsis thaliana, UniProt Q2MHE4+Q39024); assay: in vitro pull-down assay, His-HT1 with GST-MPK4; assay type: binding; conditions: 20 mM NaHCO3 in all buffers
T5 construct: made in house
Description: We therefore investigated a possible binding between MPK4 and HT1 and the effect of HCO3^−.
FIG. 4. […] CO2 concentration changes were applied as indicated on top (p.p.m.). n=6 experiments, error bars show ±SEM. • (J) Model of plant stomatal CO2 sensor and signaling (see text).
FIG. 6. […] Precipitated proteins were washed with buffers supplemented with NaHCO3 at the indicated concentrations (0, 2 or 20 mM). See FIG. 4d for an independent experiment. To control for effects of Na^+, 20 mM NaCl (0 mM NaHCO3) for lanes 1 and 4 were included in the buffers; and 18 mM NaCl (2 mM NaHCO3) for lane 3 were included in buffer.

[1] = test system: MPK4/12, HT1 and CBC1 recombinant proteins; assay: in vitro phosphorylation assay: NaHCO3-dependent down-regulation of HT1-mediated CBC1 phosphorylation; assay type: biochemical, Arabidopsis
Description: (§1) We tested whether this HT1-mediated activation of CBC1 is inhibited by CO2/bicarbonate by adding NaHCO3 in in vitro phosphorylation reactions. […]
(§2) FIG. 2. […] Histone was used as an artificial protein kinase substrate. • (B) MPK4, HT1 and CBC1 proteins were incubated with NaHCO3 at the indicated concentrations for 30 min, and in vitro phosphorylation assays were performed. • (C) CBC1 band intensities as shown in (B) were measured using IMAGEJ™, n=4 experiments, error bars show ±S.D. • (D) MPK4, HT1 and CBC1 proteins were incubated in reaction buffers adjusted at different pH (6.5 to 8.5) for 30 min, and in vitro phosphorylation assays were performed. • (E) CBC1 band intensities and the density-ratios of ‘+NaHCO3’ to ‘—NaHCO3’ (=+NaCl controls) for each pH condition
(§3) FIG. 3. […] Ambient CO2 concentrations are indicated by the top bars. n=7 experiments, error bars show ±SEM. • (C) Recombinant HT1 (wild type, HT1-G89R or HT1-R173Q) and CBC1 proteins were incubated with MPK4 in the presence or absence of 20 mM NaHCO3 or 20 mM NaCl (−controls) for 30 min, and in vitro phosphorylation assays were performed. • (D) Recombinant MPK12, CBC1 and HT1 (WT or R102K) proteins were incubated with or without 20 mM NaHCO3 or 20 mM NaCl (−controls) for 30 min, and in vitro phosphorylation assays were performed. Histone was used as an artificial kinase substrate. • (E) HT1 (WT or A109V) proteins were used for in vitro phosphorylation assays. Proteins were incubated with or without 20 mM NaHCO3 or 20 mM NaCl (−controls) for 30 min. • (F) Stomatal conductances were analyzed using intact plants of Arabidopsis (Col-0 (WT), cbc1 cbc2, ht1-A109V and cbc1 cbc2 ht1-A109V). CO2 concentration changes were applied as indicated on top (p.p.m.). […]

[2] = target: T6, MPK4/12, HT1 and CBC1 recombinant proteins (Arabidopsis thaliana, UniProt Q2MHE4); assay: as above; assay type: biochemical; conditions: HT1 and CBC1 only, no MPK4/MPK12; 20 mM NaHCO3, 30 min
T6 construct: His; made in house
Description: as §1, §2, §3

[3] = target: T7, MPK4/12, HT1 and CBC1 recombinant proteins (Arabidopsis thaliana, UniProt Q2MHE4+Q39024); assay: as above; assay type: biochemical
T7 construct: His; made in house
Description: as §1, §2, §3

HT1-G89R = target: T1, HT1-G89R; assay: in vitro pull-down with or without NaHCO3 (FIG. 4E, n=3)
Description: FIG. 4E illustrates gel protein separation images showing data where in vitro pull-down assays were performed using recombinant HT1 (wild type, HT1-G89R and HT1-R173Q) proteins;
FIG. 4. Bicarbonate inactivates HT1 kinase by stabilizing HT1 interaction with MPK4/12. [0265] (A) Recombinant CBC1, HT1 and MPK4 proteins are incubated with or without 20 mM NaHCO₃ for 30 min, and in vitro phosphorylation assays were performed. [0266] (B) CBC1 and HT1 proteins were incubated with or without 20 mM NaHCO₃ or 20 mM NaCl (“−” controls) in the presence or absence of MPK12 protein. [0267] (C) His-HT1 and GST-MPK4 or GST control proteins were used for in vitro pull-down assays with or without 20 mM NaHCO₃. NaHCO₃ or 20 mM NaCl (“−” controls) were supplemented in all buffers throughout the pull-down assay procedures including the washing step. [0268] […] [0269] (E) In vitro pull-down assays were performed using recombinant HT1 (wild type, HT1-G89R and HT1-R173Q) proteins. [0270] (F) In vitro pull-down assays were performed using HT1-R102K isoform. [0271] (G) In vitro pull-down assays were performed using HT1-A109V isoform. [0272] […] [0273] (I) Stomatal conductances were analyzed in leaves of intact Arabidopsis plants [Col-0 (WT), mpk 12, pGC1:MPK12-GFP/mpk12 and pGC1:MPK12 (K70R)-GFP/mpk12]. CO₂ concentration changes were applied as indicated on top (p.p.m.). n=6 experiments, error bars show ±SEM. [0274] […]

[4] = target: T2, His-HT1 (recombinant Arabidopsis HT1 …)
HT1-A109V = target: T3, HT1-A109V; assay: in vitro pull-down with or without NaHCO3 (FIG. 4G, n=3)
HT1-R102K = target: T4, HT1-R102K; assay: in vitro pull-down with or without NaHCO3 (FIG. 4F, n=3)

Row | binding result (HT1-G89R) | binding result (HT1-A109V) | binding result (HT1-R102K) | Molecule | modulation of activity of S-type anion channels by HCO3- (S-type anion channels) [%] | effect of HCO3- on binding between MPK4 and HT1 (MPK4 and HT1) | effect of NaHCO3 on CBC1 and histone phosphorylation ([1]; MPK4 or MPK12 added to HT1 and CBC1, 20 mM NaHCO3, 30 min) | kinase activities of CBC1, HT1 or MPK4 exposed to NaHCO3 individually ([1]; each kinase alone, 20 mM NaHCO3, 30 min) | CBC1 activity in response to NaHCO3 ([1]; only MPK12 and CBC1 in the reaction, no HT1, 20 mM NaHCO3) | HT1 kinase activity in response to NaHCO3 ([1]; only in the presence of MPK12, 20 mM NaHCO3) | effect of NaHCO3 on CBC1 phosphorylation level [2] | EC50 [3] [mM] | effect of NaHCO3 on CBC1 phosphorylation at different pH ([3]; MPK4 and HT1 present, high pH conditions at ≥pH 7.5 (buffers pH 6.5 to 8.5)) | CBC1 and histone phosphorylation in vitro (HT1 + CBC1 + MPK4, 20 mM NaHCO3; FIG. 2A, n>6) [4]
1 |  |  |  | O=C(O)O [NaHCO3] | ~20 | greatly enhanced the binding | inhibited both CBC1 phosphorylation and histone phosphorylation | not affected | not affected | inhibited | no clear effect | ~7.1 | inhibited CBC1 phosphorylation | 
2 | no binding | no binding | no binding | GST-MPK4 (recombinant Arabidopsis MAP kinase MPK4 with GST tag) (enzyme, The tag is placed at the N-terminus only because of the printed name GST-MPK4; The phosphorylation assays say only 'MPK4' and name no tag; also called AtMPK4; AT4G01370; not shown: GST tag) MSAESCFGSSGDQSSSKGVATHGGSYVQYNVYGNLFEVSRKYVPPLRPIGRGAYGIVCAATNSETGEEVAIKKIGNAFDNIIDAKRTLREIKLLKHMDHENVIAVKDIIKPPQRENFNDVYIVYELMDTDLHQIIRSNQPLTDDHCRFFLYQLLRGLKYVHSANVLHRDLKPSNLLLNANCDLKLGDFGLARTKSETDFMTEYVVTRWYRAPELLLNCSEYTAAIDIWSVGCILGETMTREPLFPGKDYVHQLRLITELIGSPDDSSLGFLRSDNARRYVRQLPQYPRQNFAARFPNMSAGAVDLLEKMLVFDPSRRITVDEALCHPYLAPLHDINEEPVCVRPFNFDFEQPTLTEENIKELIYRETVKFNPQDSV |  |  |  |  |  |  |  |  |  | when MPK4 or MPK12 were added to the reaction, we found that the addition of NaHCO3, but not NaCl, inhibited both CBC1 phosphorylation and histone phosphorylation in vitro
